Assay results taken from US20130302278A1, “USE OF TLR AGONISTS AND/OR TYPE 1 INTERFERONS TO ALLEVIATE TOXICITY OF TNF-R AGONIST THERAPEUTIC REGIMENS” (Immurx Inc., priority 2007, published 2013).

Assays:
[1] = test system: B16.F10 melanoma cells; assay: Therapeutic vaccination against metastatic B16.F10 melanoma (lung metastases, survival)
Method: Therein, C57BL/6 mice were challenged with 10^5 metastatic B16.F10 melanoma cells intravenously. Four days later, mice were vaccinated with 100 μg of the tumor-associated antigen V, 100 μg CD40 FGK45, and 100 μg S-27609 in combinations as indicated. After 24 days, mice were killed, lungs were removed, and metastatic surface tumor nodules were enumerated with the aid of a dissecting microscope.
Mice were injected with 10^5 B16.F10 melanoma tumor cells intravenously to establish lung metastases. Four days later, naive or tumor-bearing mice were intravenously vaccinated with 100 μg V peptide, 100 μg anti-CD40, and 100 μg of the TLR7 agonist S-27609 in various combinations as indicated. Lungs were harvested approximately 20 days later, and metastases were enumerated with the aid of a dissection microscope. Alternatively, mice were monitored for survival over the next 90 days.
C57BL/6 mice were challenged with 10^5 metastatic B16.F10 melanoma cells intravenously. Four days later, mice were vaccinated with 100 μg of the tumor-associated antigen V, 100 μg CD40 FGK45, and 100 μg S-27609 in combinations as indicated. After 24 days, mice were killed, lungs were removed, and metastatic surface tumor nodules were enumerated with the aid of a dissecting microscope.

[2] = test system: TRP2-specific CD8^+ T cells; assay: Degranulation (CD107a) and expansion of CD8+ T cells in peripheral blood 7 days after immunization; assay type: in vivo, C57BL/6 mice; details: 7 days after i.v. immunization, 100 μg each, groups given with V peptide
Excerpt: Seven days later, mice were bled and cells were restimulated in vitro with TRP2(180-188) to assess the ability to produce IFN and translocate CD107a as described in “Methods.” Lymphocytes were identified by forward and side scatter and subsequently gated on all CD8^+ events. (A) Representative dot plots from vaccinated mice. The numbers in the upper right corners indicate the frequency of CD8^+ T cells that are positive for IFN and CD44 (top row) or IFN and CD107a (bottom row). (B) Percentage of peripheral blood lymphocytes expressing the CD8 antigen. P.001 by one-tailed ANOVA (C) Quantification of the percentages of CD8^+ cells that degranulated in response to peptide restimulation. In all cases, data presented are representative of at least 3 independent experiments. […] P.001 by one-tailed ANOVA.
Cells from lung, spleen, or peripheral blood (peripheral blood lymphocytes [PBLs]) were incubated with 1 μg/mL Ova(257-264) or TRP2(180-188) peptide plus 10 U/mL IL-2 and 3 μg/mL brefeldin A in complete medium at 37° C. for 5 to 18 hours. […] The percentage of IFN^+ cells was calculated by subtracting the background observed with the irrelevant peptide control.

[3] = Macroscopic and histologic analysis of livers (H&E, 0 to 4 score); assay type: in vivo, mice
Method: (§1) FIG. 5 This figure contains experiments that reveal that the hepatic toxicity associated with CD40 monotherapy is reversed with TLR7 agonism. FIG. 5(A, B) contain kinetic analysis of serum transaminases. Mice were treated with PBS, 100 μg CD40, 100 μg TLR7*, or both intravenously. Serum was isolated at various time points afterward, and serum levels of alanine transaminase (A) or aspartate transaminase (B) were measured as described. Data are representative of 3 independent experiments, with n=3 to 8 mice per group, per time point. (C-F) Histologic analysis of livers treated with PBS (C), […] CD40 (D), 100 μg TLR7* (E), or 100 μg CD40 and 100 μg TLR7*(F) for 48 hours. (G) Semiquantitative assessment of histopathologic changes in livers from mice treated as above for 48 hours. […]
(§2) Hepatocellular injury was biochemically assessed by measuring serum liver enzyme activity. […] Serum was harvested 24 to 72 hours later and levels of alanine aminotransferase (ALT) and aspartate aminotransferase (AST) were determined by standard clinical assays at the National Jewish Medical Center Core Lab (Denver, Colo.). For histologic analysis, livers from mice treated as above were fixed in buffered formalin, embedded in paraffin, sectioned, and stained with hematoxylin and eosin (H&E) prior to being coded and scored on a 0 to 4 scale in a blinded fashion. […]

[4] = test system: memory CD8^+ T cells; assay: Memory CD8+ T-cell function (intracellular cytokine staining) 60+ days after vaccination; assay type: in vivo, mice; details: spleen and lung
Method: In the experiments depicted in FIG. 2, mice were immunized with 100 μg each of V peptide, CD40, and S-27609 in combinations as indicated. Memory CD8S functionality was assessed 65 days later. (A) Representative dot plots of IFN secretion by memory CD8^+ T cells isolated from spleens and lungs of vaccinated mice. Dot plots are gated on live CD8^+ cells, and numbers indicate the percentage of cells positive for both IFN and CD44. (B) Memory CD8^+ T-cell cytolytic activity was assessed by performing an in vivo cytotoxicity assay. Numbers reflect the percentage of antigen-specific lysis. (C,D) Quantification of relative and absolute numbers of memory CD8 cells expressing IFN in the spleen (C) and lung (D). Absolute numbers of positive cells were determined by multiplying the relative percentage of each cell population by the total number of cells isolated from each tissue. (E) Quantification of the in vivo cytotoxicity assay presented in panel B. P.001 by one-tailed ANOVA. […] Cells from panel F were analyzed for the ability to produce TNF and IL-2. […]
Mice were immunized with 100 μg each of V peptide, CD40, and S-27609 in combinations as indicated. Memory CD8 functionality was assessed 65 days later. […] (B) Memory CD8^+ T-cell cytolytic activity was assessed by performing an in vivo cytotoxicity assay. […] (E) Quantification of the in vivo cytotoxicity assay presented in panel B. P.001 by one-tailed ANOVA. […]

[5] = Serum transaminase (ALT, AST) analysis of hepatocellular injury; assay type: in vivo, mice; details: 100 μg each i.v., 24 to 72 hours
Method: as §1, §2

Molecule | control of tumor progression (number of lung tumor nodules) ([1]; 10^5 B16.F10 i.v., treatment 4 days later, lungs at 24 days) | mean survival time ([1]; all mice succumbed to lung failure) [days] | CD8^+ cells expressing CD107a (degranulation after peptide restimulation) [2] | histologic analysis of liver ([3]; 48 hours after 100 μg each i.v.) | semiquantitative score of histologic liver damage ([3]; 48 hours, P=0.026, TLR7* added to CD40) | persisting antigen-specific CD8^+ effector population [4] | plasma levels of ALT and AST [5]
SIYDFFVWL [tumor antigen] | ineffective in controlling tumor progression | 29 |  |  |  |  | 
Cc1nc2c(N)nc3ccccc3c2n1CC(C)(C)O [TLR7*] |  |  | approximately 2% | minor inflammation without any observable coagulative necrosis | significantly reduces liver toxicity associated with CD40 monotherapy | failed to induce a significant pool | no effect on enzyme levels
